According to patent US20220324865A1 (Bayer Aktiengesellschaft, priority 2018, published 2022):

target: T1, human EP3 receptor (Homo sapiens, UniProt P43115); test: Cellular in vitro assay for determining EP3 receptor activity (human EP3 cell line, sulprostone-stimulated calcium luminescence); type: cell-based; conditions: CHO cells expressing human EP3 and mitochondrial Clytin; antagonist mode, sulprostone at EC50; read-out: EP3 CHO mtCLY ANTAG IC50
T1 construct: expressed in transfected cells; host or cells: CHO K1 (Chinese Hamster Ovary), stably co-transfected with Galpha16 and mitochondrial clytin
T1 sequence (P43115 1-390): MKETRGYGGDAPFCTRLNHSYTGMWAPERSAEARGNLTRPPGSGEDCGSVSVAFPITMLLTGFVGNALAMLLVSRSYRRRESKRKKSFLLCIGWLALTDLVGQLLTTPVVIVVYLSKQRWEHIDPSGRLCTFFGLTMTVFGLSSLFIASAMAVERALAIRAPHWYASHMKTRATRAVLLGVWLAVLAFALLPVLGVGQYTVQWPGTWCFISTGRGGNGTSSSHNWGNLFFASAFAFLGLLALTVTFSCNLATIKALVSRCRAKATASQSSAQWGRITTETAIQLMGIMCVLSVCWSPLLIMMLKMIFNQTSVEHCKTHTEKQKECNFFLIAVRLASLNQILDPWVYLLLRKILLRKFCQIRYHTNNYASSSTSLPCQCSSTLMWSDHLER
How it was run: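 CHO K1 cells stably expressing human EP3 with Gα16 and mitochondrial Clytin, loaded overnight with coelenterazine. Compounds added 10 min before sulprostone at its EC50; antagonism read immediately as reduced calcium-driven luminescence, quadruplicate points.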

Structure (SMILES) | IC50 [nM]
Cc1ccc(-c2cn3nc(C(=O)NC(C(C)C)C(O)C(F)(F)F)cc3c(=O)[nH]2)cc1C (centres unmarked) [6-351] | 7
Cc1ccc(-c2cn3nc(C(=O)N[C@@H](c4ccccc4)[C@@H](O)CO)cc3c(=O)[nH]2)cc1C [6-353] | 3.73
Cc1ccc(-c2cn3nc(C(=O)NC(C)C(O)C(F)(F)F)cc3c(=O)[nH]2)cc1C (centres unmarked) [6-355] | 5.8
COc1ccc(C2(NC(=O)c3nn4cc(-c5ccc(C)c(F)c5)[nH]c(=O)c4c3C3CC3)CN(C)C2)cc1 [6-365] | 3.15
Cc1ccc(-c2cn3nc(C(=O)NCCN(CC(F)F)C4CC4)c(C4CC4)c3c(=O)[nH]2)cc1F [6-379] | 1.8
Cc1ccc(-c2cn3nc(C(=O)NCCN(C)C4CC4)c(C4CC4)c3c(=O)[nH]2)cc1F [6-384] | 3.4
COc1ccc([C@@H](NC(=O)c2nn3cc(-c4ccc(C)c(F)c4)[nH]c(=O)c3c2C2CC2)C(F)(F)CO)cn1 [6-400] | 3.65
Cc1ccc(-c2cn3nc(C(=O)N[C@@H](c4ccc(F)cc4)C(F)(F)CO)c(C)c3c(=O)[nH]2)c(F)c1F [6-413] | 3.43
C[C@@H](CO)NC(=O)c1nn2cc(-c3ccc(Cl)c(Cl)c3)[nH]c(=O)c2c1C1CC1 [6-414] | 5.55
COc1ccc(C2(NC(=O)c3nn4cc(-c5ccc(C)c(C)c5)[nH]c(=O)c4c3C3CC3)CN(C)C2)cc1 [6-427] | 5.15
Cc1ccc(-c2cn3nc(C(=O)NCC(O)(C(F)(F)F)C(F)(F)F)c(C4CC4)c3c(=O)[nH]2)cc1C [6-434] | 1.95
Cc1ccc(-c2cn3nc(C(=O)NC[C@@]4(C5CC5)NC(=O)NC4=O)c(C4CC4)c3c(=O)[nH]2)cc1C [6-456] | 5.95
Cc1ccc(-c2cn3nc(C(=O)NC[C@]4(C5CC5)NC(=O)NC4=O)c(C4CC4)c3c(=O)[nH]2)cc1C [6-457] | 4.65
COc1ccc(C2(NC(=O)c3nn4cc(-c5ccc6c(c5)OCCO6)[nH]c(=O)c4c3C3CC3)CN(C)C2)cc1 [6-464] | 3.6
CC(C)(O)[C@@H](NC(=O)c1nn2cc(-c3ccc4c(c3)OCCO4)[nH]c(=O)c2c1C1CC1)c1ccc(F)cc1 [6-466] | 5.4
CN1CC(NC(=O)c2nn3cc(-c4ccc5c(c4)OCCO5)[nH]c(=O)c3c2C2CC2)(c2ccc(F)cc2)C1 [6-467] | 2.35

Structure (SMILES) | IC50 [nM]
CN1CC(NC(=O)c2nn3cc(-c4cc(F)c(Cl)c(F)c4)[nH]c(=O)c3c2C2CC2)(c2ccc(F)cc2)C1 [6-471] | 1.8
C[C@@H](NC(=O)c1nn2cc(-c3cc(F)c(Cl)c(F)c3)[nH]c(=O)c2c1C1CC1)C1CC1 [6-473] | 3.3
CC(C)(O)[C@@H](NC(=O)c1nn2cc(-c3cc(F)c(Cl)c(F)c3)[nH]c(=O)c2c1C1CC1)c1ccc(F)cc1 [6-475] | 2.58
Cc1cc(-c2cn3nc(C(=O)N[C@H](C)C4CC4)c(C(F)(F)C(F)(F)F)c3c(=O)[nH]2)ccc1Cl [6-476] | 5.3
CC[C@@H](C)NC(=O)c1nn2cc(-c3ccc(Cl)c(C)c3)[nH]c(=O)c2c1C(F)(F)C(F)(F)F [6-479] | 2.3
Cc1cc(-c2cn3nc(C(=O)NC4(c5ccc(F)cc5)CN(C)C4)c(C(F)(F)C(F)(F)F)c3c(=O)[nH]2)ccc1Cl [6-480] | 3.05
COc1cc(-c2cn3nc(C(=O)N[C@@H](c4ccc(F)cc4)C(C)(C)O)c(C4CC4)c3c(=O)[nH]2)ccc1Cl [6-484] | 1.8
COc1cc(-c2cn3nc(C(=O)NC4(c5ccc(F)cc5)CN(C)C4)c(C4CC4)c3c(=O)[nH]2)ccc1Cl [6-485] | 3.4
COc1cc(-c2cn3nc(C(=O)N[C@@H](c4ccc(F)cc4)C(F)(F)CO)c(C4CC4)c3c(=O)[nH]2)ccc1Cl [6-486] | 2.1
Cc1ccc(-c2cn3nc(C(=O)N[C@@H](c4ccc(F)cc4)C(C)(C)O)c(C(F)(F)C(F)(F)F)c3c(=O)[nH]2)cc1F [6-492] | 1.8
CC(C)(O)[C@@H](NC(=O)c1nn2cc(-c3ccc(Cl)c(F)c3)[nH]c(=O)c2c1C(F)(F)C(F)(F)F)c1ccc(F)cc1 [6-493] | 2.98
O=C(NC(CO)(CO)C(F)(F)F)c1nn2cc(-c3ccc4ccccc4c3)[nH]c(=O)c2c1C(F)(F)F [6-498] | 7.13
O=C(N[C@H](CN1CC(F)C1)C1CC1)c1nn2cc(-c3ccc4ccccc4c3)[nH]c(=O)c2c1C(F)(F)F [6-513] | 7.1
C[C@@H](CN1CC(F)C1)NC(=O)c1nn2cc(-c3ccc4ccccc4c3)[nH]c(=O)c2c1C(F)(F)F [6-514] | 9.25
COC[C@H](C)NC(=O)c1nn2cc(-c3ccc4ccccc4c3)[nH]c(=O)c2c1C(F)(F)F [6-515] | 3

These reach a lower IC50. Values come first.

IC50 [nM] | Structure (SMILES)
0.99 | Cc1cc(-c2cn3nc(C(=O)NC4(c5ccc(F)cc5)CN(CC(F)(F)F)C4)c(C4CC4)c3c(=O)[nH]2)ccc1Cl [6-344]
1.55 | Cc1cc(-c2cn3nc(C(=O)NC4(c5ccc(F)cc5)CN(C5CC5)C4)c(C4CC4)c3c(=O)[nH]2)ccc1Cl [6-345]
0.78 | Cc1ccc(-c2cn3nc(C(=O)NC(c4ccccc4)C(O)C(F)(F)F)cc3c(=O)[nH]2)cc1C (centres unmarked) [6-350]
1.07 | Cc1ccc(-c2cn3nc(C(=O)N[C@@H](c4ccc(F)cc4)C(F)(F)CO)c(C4CC4)c3c(=O)[nH]2)cc1F [6-375]
1.3 | Cc1ccc(-c2cn3nc(C(=O)N[C@@H](C)C4CC4)c(C4CC4)c3c(=O)[nH]2)cc1F [6-380]
1.3 | Cc1ccc(-c2cn3nc(C(=O)N[C@@H](c4ccccc4)C(C)(C)O)c(C4CC4)c3c(=O)[nH]2)cc1F [6-385]
0.85 | Cc1ccc(-c2cn3nc(C(=O)N[C@@H](CO)C(F)(F)F)c(C4CC4)c3c(=O)[nH]2)cc1F [6-393]
0.69 | Cc1ccc(-c2cn3nc(C(=O)NCC(O)(C(F)(F)F)C(F)(F)F)c(C4CC4)c3c(=O)[nH]2)cc1F [6-403]
1.03 | Cc1ccc(-c2cn3nc(C(=O)NC(c4ccccc4)C(O)C(F)(F)F)c(C)c3c(=O)[nH]2)cc1F (centres unmarked) [6-407]
1.03 | Cc1ccc(-c2cn3nc(C(=O)N[C@H](CCO)c4ccc(F)cc4)c(C)c3c(=O)[nH]2)cc1F [6-408]
1.43 | Cc1ccc(-c2cn3nc(C(=O)N[C@@H](c4ccc(F)cc4)C(F)(F)CO)c(C)c3c(=O)[nH]2)cc1F [6-412]
1.49 | O=C(N[C@@H](c1ccc(F)cc1)C(F)(F)CO)c1nn2cc(-c3ccc(Cl)c(Cl)c3)[nH]c(=O)c2c1C1CC1 [6-421]
0.52 | O=C(N[C@H](CCO)c1ccc(F)cc1)c1nn2cc(-c3ccc(Cl)c(Cl)c3)[nH]c(=O)c2c1C1CC1 [6-425]
0.82 | COc1ccc([C@@H](C)NC(=O)c2nn3cc(-c4ccc(Cl)c(Cl)c4)[nH]c(=O)c3c2C2CC2)cn1 [6-426]
0.55 | Cc1ccc(-c2cn3nc(C(=O)N[C@H](C)C4CC4)c(C4CC4)c3c(=O)[nH]2)cc1C [6-438]
1 | Cc1ccc(-c2cn3nc(C(=O)N[C@@H](C)C4CC4)c(C4CC4)c3c(=O)[nH]2)cc1C [6-439]
1.05 | Cc1ccc(-c2cn3nc(C(=O)N[C@@H](c4ccc(F)cc4)C(C)(C)O)c(C4CC4)c3c(=O)[nH]2)cc1C [6-440]

IC50 [nM] | Structure (SMILES)
1.13 | Cc1ccc(-c2cn3nc(C(=O)NC4CCN(CC(F)F)C4)c(C4CC4)c3c(=O)[nH]2)cc1C (centres unmarked) [6-453]
1.7 | Cc1ccc(-c2cn3nc(C(=O)NCCN(CC(F)F)C4CC4)c(C4CC4)c3c(=O)[nH]2)cc1C [6-460]
1.16 | C[C@H](NC(=O)c1nn2cc(-c3cc(F)c(Cl)c(F)c3)[nH]c(=O)c2c1C1CC1)C1CC1 [6-472]
1.63 | O=C(N[C@@H](c1ccc(F)cc1)C(F)(F)CO)c1nn2cc(-c3cc(F)c(Cl)c(F)c3)[nH]c(=O)c2c1C1CC1 [6-474]
0.44 | Cc1cc(-c2cn3nc(C(=O)N[C@@H](c4ccc(F)cc4)C(F)(F)CO)c(C(F)(F)C(F)(F)F)c3c(=O)[nH]2)ccc1Cl [6-477]
1.2 | Cc1cc(-c2cn3nc(C(=O)N[C@@H](C)C4CC4)c(C(F)(F)C(F)(F)F)c3c(=O)[nH]2)ccc1Cl [6-478]
0.57 | COc1cc(-c2cn3nc(C(=O)N[C@@H](C)C4CC4)c(C4CC4)c3c(=O)[nH]2)ccc1Cl [6-481]
0.48 | COc1cc(-c2cn3nc(C(=O)N[C@H](CCO)c4ccc(F)cc4)c(C4CC4)c3c(=O)[nH]2)ccc1Cl [6-482]
1.01 | COc1cc(-c2cn3nc(C(=O)N[C@H](C)C4CC4)c(C4CC4)c3c(=O)[nH]2)ccc1Cl [6-483]
0.67 | Cc1ccc(-c2cn3nc(C(=O)N[C@@H](c4ccc(F)cc4)C(F)(F)CO)c(C(F)(F)C(F)(F)F)c3c(=O)[nH]2)cc1Cl [6-487]
0.57 | Cc1ccc(-c2cn3nc(C(=O)N[C@@H](c4ccc(F)cc4)C(C)(C)O)c(C(F)(F)C(F)(F)F)c3c(=O)[nH]2)cc1Cl [6-488]
0.41 | Cc1ccc(-c2cn3nc(C(=O)N[C@@H](c4ccc(F)cc4)C(F)(F)CO)c(C(F)(F)C(F)(F)F)c3c(=O)[nH]2)cc1C [6-489]
0.58 | Cc1ccc(-c2cn3nc(C(=O)N[C@@H](c4ccc(F)cc4)C(F)(F)CO)c(C(F)(F)C(F)(F)F)c3c(=O)[nH]2)cc1F [6-491]
0.61 | COC[C@@H](NC(=O)c1nn2cc(-c3ccc4ccccc4c3)[nH]c(=O)c2c1C(F)(F)F)c1ccccc1 [6-495]
1.2 | CCn1cc(CNC(=O)c2nn3cc(-c4ccc5ccccc5c4)[nH]c(=O)c3c2C(F)(F)F)c(C)n1 [6-496]
0.59 | CC[C@@H](C)NC(=O)c1nn2cc(-c3ccc4ccccc4c3)[nH]c(=O)c2c1C(F)(F)F [6-511]
0.95 | CC(C)[C@@H](C)NC(=O)c1nn2cc(-c3ccc4ccccc4c3)[nH]c(=O)c2c1C(F)(F)F [6-512]
